In patent EP3565534B1, “POLYMERIC NANOPARTICLES ENCAPSULATING A COMBINATION OF NATURAL BIO-ACTIVES TRANS-RESVERATROL(RSV) AND CELASTROL(CL), A PROCESS FOR THE PREPARATION AND USE THEREOF IN THE TREATMENT OF PROSTATE CANCER” (Università degli Studi di Sassari, priority 2017, dated 2018):
Read-outs that look alike come from different tables or passages of the source.

How the values were obtained:
[1] = tested on: prostate cancer cell lines (C-42, DU-145, and PC-3 cells); test: MTT assay, antiproliferative efficacy, results stated for all three cell lines together; type: cell-based; details: 72 hours; non-encapsulated, alone; RSV 20, 30, 40 µM; CL 0.250, 0.375, 0.5 µM
Description: Finally, in vitro cytotoxicity studies were performed in order to evaluate whether co-administration of encapsulated RSV and CL would have allowed an increase in the antiproliferative efficacy compared to single molecules, both as such and formulated in nanosystems, on androgen-dependent (C-42 cells) and androgen-independent (DU-145 and PC-3 cells) prostate cancer cell lines (PCa).
The antiproliferative efficacy of the NPs of the present invention was evaluated using the MTT assay (3-[4,5-dimethylthiazol-2-yl]-2,5-diphenyl tetrazolium bromide) applying the procedure described in Sanna V., et al., Resveratrol-loaded nanoparticles based on poly(epsilon-caprolactone) and poly(D,L-lactic-co-glycolic acid)-poly(ethylene glycol) blend for prostate cancer treatment. Mol. Pharm. 2013 Oct 7;10(10):3871-81, which, as a result, is included herein as a reference in its entirety.
Each experiment was repeated 3 or 5 times (n = 3 or 5).

[2] = cited from earlier work

What does the source list for `Oc1ccc(/C=C/c2cc(O)cc(O)c2)cc1` [RSV, trans-3,5,4'-trihydroxy-stilbene]?
viability [1]: reduction of viability that is generally dose-dependent; solubility in water [2]: 3 mg/100 mL

For `CC1=C(O)C(=O)C=C2C1=CC=C1[C@@]2(C)CC[C@@]2(C)[C@@H]3C[C@](C)(C(=O)O)CC[C@]3(C)CC[C@]12C` [CL, Celastrol], which solubility in water ([2]; result in words) is on record?
Its solubility in water is “insoluble”.
